Where two headings read alike, the source gives them in different places. Non-standard residues stand in square brackets, D forms with d. Residues, ends and D or L forms follow the SMILES beside them. pT = C[C@@H](OP(=O)(O)O)[C@H](N)C(=O)O; pS = N[C@@H](COP(=O)(O)O)C(=O)O

This assay deals with T1, 14-3-3ζ (Homo sapiens, UniProt P63104).
T1 construct: Full-length expression and purification of 14-3-3; made in house; host or cells: E. coli BL21 (DE3)STAR
T1 sequence (P63104 1-245): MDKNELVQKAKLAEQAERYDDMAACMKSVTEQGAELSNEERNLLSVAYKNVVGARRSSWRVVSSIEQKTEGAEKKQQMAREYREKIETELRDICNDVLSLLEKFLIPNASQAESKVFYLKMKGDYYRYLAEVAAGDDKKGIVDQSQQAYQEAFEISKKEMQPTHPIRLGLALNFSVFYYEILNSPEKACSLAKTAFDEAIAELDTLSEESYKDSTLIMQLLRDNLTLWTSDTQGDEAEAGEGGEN
Nature of the assay: FP assay with GR phosphorylated peptides and 14-3-3ζ. In kind it is binding. How it is done:
After 30-min incubation at RT, the plates were read on a plate reader PHERAstar (BMG LABTECH GmbH) for FP signal using […] and standard excitation (485 nm) and emission (520 nm). Measurements were performed as triplicates. Binding data were fit to a standard Hill equation using the software Genedata Screener. The figures were made using the software GraphPad Prism 8. FP data were expressed as millipolarization (mP) units, and the dynamic range (ΔmP) was the difference of the signals from the bound peptide and free peptide. Errors are the standard error of the fit.

Where [1] appears, read: read-out: PKd with 14-3-3ζ (converted).

As for `CC[C@H](C)[C@H](NC(=O)[C@@H](NC(=O)[C@@H](N)CCCCN)[C@@H](C)O)C(=O)N[C@H](C(=O)N1CCC[C@H]1C(=O)N[C@@H](C)C(=O)N[C@H](C(=O)N[C@@H](CC(C)C)C(=O)N1CCC[C@H]1C(=O)N[C@@H](CCC(N)=O)C(=O)N[C@@H](CC(C)C)C(=O)N[C@H](C(=O)N1CCC[C@H]1C(=O)NCC(=O)NCC(=O)NCC(=O)NCC(=O)NCC(=O)N[C@@H](C)C(=O)N[C@@H](CO)C(=O)N[C@@H](Cc1ccc(O)cc1)C(=O)N[C@@H](CCCNC(=N)N)C(=O)N[C@@H](CCC(N)=O)C(=O)N[C@@H](CO)C(=O)N[C@@H](COP(=O)(O)O)C(=O)N[C@@H](C)C(=O)N[C@@H](CC(N)=O)C(=O)N[C@@H](CC(C)C)C(=O)N[C@@H](CC(C)C)C(=O)N[C@@H](CS)C(=O)N[C@@H](Cc1ccccc1)C(=O)O)[C@@H](C)O)[C@@H](C)OP(=O)(O)O)C(C)C` [GR_R611A] (H-KTIVPA[pT]LPQLTPGGGGGASYRQS[pS]ANLLCF-OH), under setting [1], the Kd was 50.1 nM.
For the compound `CC[C@H](C)[C@H](NC(=O)[C@@H](NC(=O)[C@@H](N)CCCCN)[C@@H](C)O)C(=O)N[C@H](C(=O)N1CCC[C@H]1C(=O)N[C@@H](C)C(=O)N[C@H](C(=O)N[C@@H](CC(C)C)C(=O)N1CCC[C@H]1C(=O)N[C@@H](CCC(N)=O)C(=O)N[C@@H](CC(C)C)C(=O)N[C@H](C(=O)N1CCC[C@H]1C(=O)NCC(=O)NCC(=O)NCC(=O)NCC(=O)NCC(=O)N[C@@H](CCCNC(=N)N)C(=O)N[C@@H](CO)C(=O)N[C@@H](Cc1ccc(O)cc1)C(=O)N[C@@H](C)C(=O)N[C@@H](CCC(N)=O)C(=O)N[C@@H](CO)C(=O)N[C@@H](COP(=O)(O)O)C(=O)N[C@@H](C)C(=O)N[C@@H](CC(N)=O)C(=O)N[C@@H](CC(C)C)C(=O)N[C@@H](CC(C)C)C(=O)N[C@@H](CS)C(=O)N[C@@H](Cc1ccccc1)C(=O)O)[C@@H](C)O)[C@@H](C)OP(=O)(O)O)C(C)C` [GR_R614A] (H-KTIVPA[pT]LPQLTPGGGGGRSYAQS[pS]ANLLCF-OH), where the note is “FP, doubly phosphorylated 31-mer peptides, triplicates, read-out: Kd with 14-3-3ζ (values in nM)”, the Kd is 220 nM.
Regarding `CC[C@H](C)[C@H](NC(=O)[C@@H](NC(=O)[C@@H](N)CCCCN)[C@@H](C)O)C(=O)N[C@H](C(=O)N1CCC[C@H]1C(=O)N[C@@H](C)C(=O)N[C@H](C(=O)N[C@@H](CC(C)C)C(=O)N1CCC[C@H]1C(=O)N[C@@H](CCC(N)=O)C(=O)N[C@@H](CC(C)C)C(=O)N[C@H](C(=O)N1CCC[C@H]1C(=O)NCC(=O)NCC(=O)NCC(=O)NCC(=O)NCC(=O)N[C@@H](CCCNC(=N)N)C(=O)N[C@@H](C)C(=O)N[C@@H](Cc1ccc(O)cc1)C(=O)N[C@@H](CCCNC(=N)N)C(=O)N[C@@H](CCC(N)=O)C(=O)N[C@@H](CO)C(=O)N[C@@H](COP(=O)(O)O)C(=O)N[C@@H](C)C(=O)N[C@@H](CC(N)=O)C(=O)N[C@@H](CC(C)C)C(=O)N[C@@H](CC(C)C)C(=O)N[C@@H](CS)C(=O)N[C@@H](Cc1ccccc1)C(=O)O)[C@@H](C)O)[C@@H](C)OP(=O)(O)O)C(C)C` [GR_S612A] (H-KTIVPA[pT]LPQLTPGGGGGRAYRQS[pS]ANLLCF-OH), the Kd under setting [1] is 31.6 nM.
The same measure, in the same setting: the figure for `CC[C@H](C)[C@H](NC(=O)[C@@H](NC(=O)[C@@H](N)CCCCN)[C@@H](C)O)C(=O)N[C@H](C(=O)N1CCC[C@H]1C(=O)N[C@@H](C)C(=O)N[C@H](C(=O)N[C@@H](CC(C)C)C(=O)N1CCC[C@H]1C(=O)N[C@@H](CCC(N)=O)C(=O)N[C@@H](CC(C)C)C(=O)N[C@H](C(=O)N1CCC[C@H]1C(=O)NCC(=O)NCC(=O)NCC(=O)NCC(=O)NCC(=O)N[C@@H](CCCNC(=N)N)C(=O)N[C@@H](CO)C(=O)N[C@@H](Cc1ccc(O)cc1)C(=O)N[C@@H](CCCNC(=N)N)C(=O)N[C@@H](CCC(N)=O)C(=O)N[C@@H](C)C(=O)N[C@@H](COP(=O)(O)O)C(=O)N[C@@H](C)C(=O)N[C@@H](CC(N)=O)C(=O)N[C@@H](CC(C)C)C(=O)N[C@@H](CC(C)C)C(=O)N[C@@H](CS)C(=O)N[C@@H](Cc1ccccc1)C(=O)O)[C@@H](C)O)[C@@H](C)OP(=O)(O)O)C(C)C` [GR_S616A] (H-KTIVPA[pT]LPQLTPGGGGGRSYRQA[pS]ANLLCF-OH) is 63.1 nM.
Still for that read-out and setting: the figure for `CC[C@H](C)[C@H](NC(=O)[C@H](C)NC(=O)[C@@H](N)CCCCN)C(=O)N[C@H](C(=O)N1CCC[C@H]1C(=O)N[C@@H](C)C(=O)N[C@H](C(=O)N[C@@H](CC(C)C)C(=O)N1CCC[C@H]1C(=O)N[C@@H](CCC(N)=O)C(=O)N[C@@H](CC(C)C)C(=O)N[C@H](C(=O)N1CCC[C@H]1C(=O)NCC(=O)NCC(=O)NCC(=O)NCC(=O)NCC(=O)N[C@@H](CCCNC(=N)N)C(=O)N[C@@H](CO)C(=O)N[C@@H](Cc1ccc(O)cc1)C(=O)N[C@@H](CCCNC(=N)N)C(=O)N[C@@H](CCC(N)=O)C(=O)N[C@@H](CO)C(=O)N[C@@H](COP(=O)(O)O)C(=O)N[C@@H](C)C(=O)N[C@@H](CC(N)=O)C(=O)N[C@@H](CC(C)C)C(=O)N[C@@H](CC(C)C)C(=O)N[C@@H](CS)C(=O)N[C@@H](Cc1ccccc1)C(=O)O)[C@@H](C)O)[C@@H](C)OP(=O)(O)O)C(C)C` [GR_T519A] (H-KAIVPA[pT]LPQLTPGGGGGRSYRQS[pS]ANLLCF-OH) is 63.1 nM.
Consider `CC[C@H](C)[C@H](NC(=O)[C@@H](NC(=O)[C@@H](N)CCCCN)[C@@H](C)O)C(=O)N[C@H](C(=O)N1CCC[C@H]1C(=O)N[C@@H](C)C(=O)N[C@@H](C)C(=O)N[C@@H](CC(C)C)C(=O)N1CCC[C@H]1C(=O)N[C@@H](CCC(N)=O)C(=O)N[C@@H](CC(C)C)C(=O)N[C@H](C(=O)N1CCC[C@H]1C(=O)NCC(=O)NCC(=O)NCC(=O)NCC(=O)NCC(=O)N[C@@H](CCCNC(=N)N)C(=O)N[C@@H](CO)C(=O)N[C@@H](Cc1ccc(O)cc1)C(=O)N[C@@H](CCCNC(=N)N)C(=O)N[C@@H](CCC(N)=O)C(=O)N[C@@H](CO)C(=O)N[C@@H](COP(=O)(O)O)C(=O)N[C@@H](C)C(=O)N[C@@H](CC(N)=O)C(=O)N[C@@H](CC(C)C)C(=O)N[C@@H](CC(C)C)C(=O)N[C@@H](CS)C(=O)N[C@@H](Cc1ccccc1)C(=O)O)[C@@H](C)O)C(C)C` [GR_T524A-pS617] (H-KTIVPAALPQLTPGGGGGRSYRQS[pS]ANLLCF-OH), for which, under setting [1], the Kd is 126000 nM.
The same measure, in the same setting: the same measure for `CC[C@H](C)[C@H](NC(=O)[C@@H](NC(=O)[C@@H](N)CCCCN)[C@@H](C)O)C(=O)N[C@H](C(=O)N1CCC[C@H]1C(=O)N[C@@H](C)C(=O)N[C@H](C(=O)N[C@@H](CC(C)C)C(=O)N1CCC[C@H]1C(=O)N[C@@H](CCC(N)=O)C(=O)N[C@@H](CC(C)C)C(=O)N[C@@H](C)C(=O)N1CCC[C@H]1C(=O)NCC(=O)NCC(=O)NCC(=O)NCC(=O)NCC(=O)N[C@@H](CCCNC(=N)N)C(=O)N[C@@H](CO)C(=O)N[C@@H](Cc1ccc(O)cc1)C(=O)N[C@@H](CCCNC(=N)N)C(=O)N[C@@H](CCC(N)=O)C(=O)N[C@@H](CO)C(=O)N[C@@H](COP(=O)(O)O)C(=O)N[C@@H](C)C(=O)N[C@@H](CC(N)=O)C(=O)N[C@@H](CC(C)C)C(=O)N[C@@H](CC(C)C)C(=O)N[C@@H](CS)C(=O)N[C@@H](Cc1ccccc1)C(=O)O)[C@@H](C)OP(=O)(O)O)C(C)C` [GR_T529A] (H-KTIVPA[pT]LPQLAPGGGGGRSYRQS[pS]ANLLCF-OH): 50.1 nM.
As for `CC[C@H](C)[C@H](NC(=O)[C@@H](NC(=O)[C@@H](N)CCCCN)[C@@H](C)O)C(=O)N[C@@H](C)C(=O)N1CCC[C@H]1C(=O)N[C@@H](C)C(=O)N[C@H](C(=O)N[C@@H](CC(C)C)C(=O)N1CCC[C@H]1C(=O)N[C@@H](CCC(N)=O)C(=O)N[C@@H](CC(C)C)C(=O)N[C@H](C(=O)N1CCC[C@H]1C(=O)NCC(=O)NCC(=O)NCC(=O)NCC(=O)NCC(=O)N[C@@H](CCCNC(=N)N)C(=O)N[C@@H](CO)C(=O)N[C@@H](Cc1ccc(O)cc1)C(=O)N[C@@H](CCCNC(=N)N)C(=O)N[C@@H](CCC(N)=O)C(=O)N[C@@H](CO)C(=O)N[C@@H](COP(=O)(O)O)C(=O)N[C@@H](C)C(=O)N[C@@H](CC(N)=O)C(=O)N[C@@H](CC(C)C)C(=O)N[C@@H](CC(C)C)C(=O)N[C@@H](CS)C(=O)N[C@@H](Cc1ccccc1)C(=O)O)[C@@H](C)O)[C@@H](C)OP(=O)(O)O` [GR_V521A] (H-KTIAPA[pT]LPQLTPGGGGGRSYRQS[pS]ANLLCF-OH), the Kd under setting [1] was 39.8 nM.
On to `CC[C@H](C)[C@H](NC(=O)[C@@H](NC(=O)[C@@H](N)CCCCN)[C@@H](C)O)C(=O)N[C@H](C(=O)N1CCC[C@H]1C(=O)N[C@@H](C)C(=O)N[C@H](C(=O)N[C@@H](CC(C)C)C(=O)N1CCC[C@H]1C(=O)N[C@@H](CCC(N)=O)C(=O)N[C@@H](CC(C)C)C(=O)N[C@H](C(=O)N1CCC[C@H]1C(=O)NCC(=O)NCC(=O)NCC(=O)NCC(=O)NCC(=O)N[C@@H](CCCNC(=N)N)C(=O)N[C@@H](CO)C(=O)N[C@@H](C)C(=O)N[C@@H](CCCNC(=N)N)C(=O)N[C@@H](CCC(N)=O)C(=O)N[C@@H](CO)C(=O)N[C@@H](COP(=O)(O)O)C(=O)N[C@@H](C)C(=O)N[C@@H](CC(N)=O)C(=O)N[C@@H](CC(C)C)C(=O)N[C@@H](CC(C)C)C(=O)N[C@@H](CS)C(=O)N[C@@H](Cc1ccccc1)C(=O)O)[C@@H](C)O)[C@@H](C)OP(=O)(O)O)C(C)C` [GR_Y613A] (H-KTIVPA[pT]LPQLTPGGGGGRSARQS[pS]ANLLCF-OH), for which, under setting [1], the Kd was 79.4 nM.
For `CC(C)C[C@H](NC(=O)[C@H](CO)NC(=O)[C@@H]1CCCN1C(=O)[C@H](COP(=O)(O)O)NC(=O)[C@H](CO)NC(=O)[C@H](C)NC(=O)[C@H](CO)NC(=O)[C@@H](NC(=O)[C@H](CCCCN)NC(=O)[C@@H](N)C(C)C)C(C)C)C(=O)N[C@@H](C)C(=O)N[C@H](C(=O)N[C@@H](C)C(=O)O)C(C)C` [GR_pS45] (H-VKVSAS[pS]PSLAVA-OH; N-terminus assumed), the Kd (FITC-labeled peptide 60 nM (monophosphorylated) or 10 nM (doubly phosphorylated) titrated with 14-3-3ζ, 30 min RT, Hill fit, triplicates, read-out: Kd with 14-3-3ζ by FP) is above 150000 nM.

Source of the values: publication PMC8080530, “Glucocorticoid receptor Thr524 phosphorylation by MINK1 induces interactions with 14-3-3 protein regulators” (The Journal of Biological Chemistry, 2021).
